The target in test [1] is T1, PPM1D1–420 (Homo sapiens, UniProt O15297).
T1 construct: PPM1D1–420 was PCR-amplified from the synthesized gene with BsaI sites; His(6)-SUMO (N, cleaved yes); made in house; host or cells: E. coli BL21 (DE3)
T1 sequence (O15297 1-420): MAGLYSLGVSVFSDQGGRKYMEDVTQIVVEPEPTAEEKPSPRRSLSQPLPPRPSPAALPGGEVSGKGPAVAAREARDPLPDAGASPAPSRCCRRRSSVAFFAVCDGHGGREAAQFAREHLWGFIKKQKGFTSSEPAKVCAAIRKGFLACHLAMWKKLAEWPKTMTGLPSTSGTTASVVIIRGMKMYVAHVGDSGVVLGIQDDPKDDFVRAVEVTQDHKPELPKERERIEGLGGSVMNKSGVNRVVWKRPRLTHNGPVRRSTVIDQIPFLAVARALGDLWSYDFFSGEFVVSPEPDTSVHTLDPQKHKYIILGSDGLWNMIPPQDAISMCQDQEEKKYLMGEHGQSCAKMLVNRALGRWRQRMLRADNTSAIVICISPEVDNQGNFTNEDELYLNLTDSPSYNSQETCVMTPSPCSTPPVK
As to the kind of experiment: Hydrogen–deuterium exchange mass spectrometry (HDX-MS). The method, then: Hydrogen–deuterium exchange in PPM1D proteins (PPM1D1–420, PPM1D∆Flap, and PPM1D∆Hinge) was monitored by incubating 27 pmoles of protein in storage buffer (50 mM Tris HCl pH 7.4, 500 mM NaCl, 10% glycerol, 10 mM MgCl2, 1 mM TCEP, H2O) with a 10-fold molar excess of GSK2830371 (270 pmoles) in DMSO, or 3.85% DMSO as a control. Due to the low solubility of the compound, the exact molar excess was unknown. […] The slow off-rate of the compound likely plays a role in this. The PPM1D:GSK/DMSO mix equilibrated for 15 min at room temperature, followed by the addition of a 15-fold excess of labeling buffer (20 mM HEPES, pD 7.5, 25 mM NaCl, 5 mM MgCl2, 0.1 mM TCEP, D2O) at 25 °C. Analysis of C-terminal truncations of PPM1D were performed without the DMSO and preincubation step. […]
All samples were digested immediately after quench by injecting directly into an M-class nanoAcquity UPLC with HDX technology (Waters) for online digestion with an Enzymate BEH pepsin column [2.1 × 30 mm, 5 μm (Waters)] and UPLC peptide separation. […] Back-exchange was calculated based on deuterium uptake observed in peptides within PPM1D that are solvent accessible, lack structure, and display these characteristics in their uptake profile (high deuterium incorporation that remains a flat line over 4 h time course). […]

Test [2] addresses T1, PPM1D1–420. As to the kind of experiment: Isothermal titration calorimetry (ITC). The arrangement: DH / DS: unit not given here. In kind it is binding. The following applies: Fig 3F. The method, then: Assessments of the analog of GSK2830371 (analog 1d) binding to wild-type and mutant proteins were conducted using an Auto-iTC200 microcalorimeter (Malvern) (see section on synthesis of analog 1d below). The protein was dialyzed extensively into 25 mM HEPES (pH 7.4), 150 mM NaCl, 10 mM MgCl2 and 1 mM TCEP. The dialyzed protein was used to prepare fresh working solutions of protein (20 µM) and analog 1d (200 µM) in 2% DMSO (v/v) in the same buffer. Titrations were performed at 25 °C and consisted of a single initial injection of 0.4 µL, followed by 19 injections of 2 µL of compound into a sample cell containing wild-type or mutant PPM1D, with an interval of 150 s between successive injections. The reference power and stirring speed were set at […] and 1000 RPM, respectively. Heat of dilution and mixing were obtained from injections of analog 1d into ITC buffer lacking protein and subtracted from the integrated data before curve fitting. Thermodynamic data were analyzed using Origin 7.0 software and fitted by non-linear regression to the model for a single binding site.
Background: In ITC the heat of successive injections is recorded.

Several values for one entry are separate records, joined by “and”; a condition that tells them apart may be missing. Equal values may be shown once.

Here are results for one compound from PMC9246869, “Allosteric inhibition of PPM1D serine/threonine phosphatase via an altered conformational state” (Nature Communications, 2022).

With `Cc1ncc(Cl)cc1NCc1ccc(C(=O)N[C@@H](CC2CCCC2)C(=O)NC2CC2)s1` [GSK2830371], at PPM1D1–420 [1], the “protein in the exposed population (bimodal distribution, residues 270-278) in presence of compound” value was more than 95%. On PPM1D1–420 [2] (Average of 3 trials), this compound showed a DH of -3090.67 and a DS of 26.3. Also, on PPM1D1–420 [2] (individual trials), the DH was -2879 and -3158 and -3235; the DS is 27.7 and 25.8 and 25.4.
